Measured values as given in US8163771B2, “11 β-HSD1 modulators” (Exelixis, Inc., priority 2008, dated 2012).

biological target: T1, recombinant human 11 β-HSD1 (Homo sapiens, UniProt P28845); assay: 11 β-HSD1 SPA Assay (Scintillation Proximity Assay); format: biochemical
T1 construct: made in house; host or cells: E. coli
Method: (§1) Inhibition of 11 βHSD1 by test compounds was assessed in vitro by a Scintillation Proximity Assay (SPA). The assay was carried out in a 384-well assay plate in a total well volume of 26 μl and contained a mixture of tritiated cortisone substrate (40 nM), NADPH cofactor (1 mM), inhibitor in serial dilutions ([…] to 10 μM), and purified E. coli-expressed recombinant human 11 βHSD1 (30-100 nM) in assay buffer (50 mM HEPES, 100 mM KCl, 5 mM NaCl, and 2 mM MgCl2, pH7.4). Following mixing, the plate was incubated for 2 hours at room temperature. Reactions were stopped by addition of 30 μl of protein A YSi SPA beads (10 mg/ml) that had been pre-incubated with glycyrrhetinic acid (1 mM) and a monoclonal cortisol antibody (3 μg/ml). The plate was then incubated overnight at room temperature prior to reading on a Microbeta counter. Percent inhibition of each compound was calculated based on the background and the maximal signals. Wells that contained substrate without compound or enzyme were used as the background signal, while the wells that contained substrate and enzyme without any compound were used as the maximal signal. The calculation of the IC50 values for the inhibitors was performed by Activity Base.
as §1, with “β-HSD1” for “βHSD1”

T1 sequence (P28845 whole entry): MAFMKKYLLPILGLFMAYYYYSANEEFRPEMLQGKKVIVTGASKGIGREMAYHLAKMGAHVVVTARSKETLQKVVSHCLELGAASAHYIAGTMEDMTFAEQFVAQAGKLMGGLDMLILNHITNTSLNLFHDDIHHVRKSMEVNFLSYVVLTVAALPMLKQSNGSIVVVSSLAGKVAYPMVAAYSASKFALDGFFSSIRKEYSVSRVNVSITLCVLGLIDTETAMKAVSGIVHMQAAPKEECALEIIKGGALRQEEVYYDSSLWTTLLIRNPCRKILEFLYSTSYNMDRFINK

Row | SMILES | IC50 [nM]
1 | CC(C)(Oc1ccc(Cl)cc1Cl)C(=O)N[C@H]1C[C@H]2CC[C@@H](C1)N2c1ccc(NC(=O)C(F)(F)F)cc1 [Example 116, 2-[(2,4-dichlorophenyl)oxy]-2-methyl-N-(8-{4-[(trifluoroacetyl)amino]phenyl}-8-azabicyclo[3.2.1]oct-3-endo-yl)propanamide] | < 200
2 | Cc1ccc(OC(C)(C)C(=O)N[C@H]2C[C@H]3CC[C@@H](C2)N3c2ccc(S(C)(=O)=O)cn2)c(Cl)c1 [Example 212, 2-[(2-chloro-4-methylphenyl)oxy]-2-methyl-N-{8-[5-(methylsulfonyl)pyridin-2-yl]-8-azabicyclo[3.2.1]oct-3-endo-yl}propanamide] | < 200
3 | CC(C)(Oc1cc(OCCO)c(Cl)cc1Cl)C(=O)NC1CC2CCC(C1)N2c1ccc(C(=O)NC2CC2(F)F)cn1 (stereo not drawn) [Example 392, 6-[3-endo-({2-[2,4-dichloro-5-(2-hydroxyethoxy)phenoxy]-2-methylpropanoyl}amino)-8-azabicyclo[3.2.1]oct-8-yl]-N-(2,2-difluorocyclopropyl)pyridine-3-carboxamide] | < 200
4 | CC(C)(Oc1cc(F)c(F)cc1Cl)C(=O)N[C@H]1C[C@H]2CC[C@@H](C1)N2c1ccc(C(=O)NCC(F)F)cn1 [Example 442, 6-(3-endo-{[2-(2-chloro-4,5-difluorophenoxy)-2-methylpropanoyl]amino}-8-azabicyclo[3.2.1]oct-8-yl)-N-(2,2-difluoroethyl)pyridine-3-carboxamide] | < 200
5 | CC(C)NC(=O)c1ccc(N2[C@@H]3CC[C@H]2C[C@@H](NC(=O)C(C)(C)Oc2ccc(F)c(Cl)c2)C3)nc1 [Example 95, 6-[3-endo-({2-[(3-chloro-4-fluorophenyl)oxy]-2-methylpropanoyl}amino)-8-azabicyclo[3.2.1]oct-8-yl]-N-(1-methylethyl)pyridine-3-carboxamide] | < 200
6 | CC(C)(Oc1ccc(Cl)cc1Cl)C(=O)N[C@H]1C[C@H]2CC[C@@H](C1)N2c1ccc(NC(=O)CC(F)(F)F)cc1Cl [Example 138, N-{3-chloro-4-[3-endo-({2-[(2,4-dichlorophenyl)oxy]-2-methylpropanoyl}amino)-8-azabicyclo[3.2.1]oct-8-yl]phenyl}-3,3,3-trifluoropropanamide] | < 2000
7 | NC(=O)c1ccc(N2[C@@H]3CC[C@H]2C[C@@H](NC(=O)C2(c4ccc(Cl)c(Cl)c4)CC2)C3)nc1 [Example 103, 6-[3-endo-({[1-(3,4-dichiorophenyl)cyclopropyl]carbonyl}amino)-8-azabicyclo[3.2.1]oct-8-yl]pyridine-3-carboxamide] | < 200
8 | CC(C)(Oc1ccc(F)cc1C(F)(F)F)C(=O)N[C@H]1C[C@H]2CC[C@@H](C1)N2c1ccc(S(C)(=O)=O)nc1 [Example 288, 2-{[4-fluoro-2-(trifluoromethyl)phenyl]oxy}-2-methyl-N-{8-[6-(methylsulfonyl)pyridin-3-yl]-8-azabicyclo[3.2.1]oct-3-endo-yl}propanamide] | < 2000
9 | COCCNC(=O)c1ccc(N2[C@@H]3CC[C@H]2C[C@@H](NC(=O)C(C)(C)Oc2ccc(Cl)cc2Cl)C3)nc1 [Example 80, 6-[3-endo-({2-[(2,4-dichlorophenyl)oxy]-2-methylpropanoyl}amino)-8-azabicyclo[3.2.1]oct-8-yl]-N-[2-(methyloxy)ethyl]pyridine-3-carboxamide] | < 200
10 | CC(C)(Oc1cc(F)c(Cl)cc1Cl)C(=O)N[C@H]1C[C@H]2CC[C@@H](C1)N2c1ccc(C(=O)NC2CC2)cn1 [Example 91, N-cyclopropyl-6-[3-endo-({2-[(2,4-dichloro-5-fluorophenyl)oxy]-2-methylpropanoyl}amino)-8-azabicyclo[3.2.1]oct-8-yl]pyridine-3-carboxamide] | < 200
11 | CC(C)(Oc1ccc(C(F)(F)F)cc1)C(=O)N[C@H]1C[C@H]2CC[C@@H](C1)N2c1ccc(S(C)(=O)=O)cc1 [Example 245, 2-methyl-N-{8-[4-(methylsulfonyl)phenyl]-8-azabicyclo[3.2.1]oct-3-endo-yl}-2-{[4-(trifluoromethyl)phenyl]oxy}propanamide] | < 2000
12 | CC(C)(Oc1nccc2ccccc12)C(=O)N[C@H]1C[C@H]2CC[C@@H](C1)N2c1ccc(C(N)=O)cn1 [Example 339, 6-(3-endo-{[2-(isoquinolin-1-yloxy)-2-methylpropanoyl]amino}-8-azabicyclo[3.2.1]oct-8-yl)pyridine-3-carboxamide] | < 200
13 | CC(C)(Oc1ncc(Cl)cc1Cl)C(=O)N[C@H]1C[C@H]2CC[C@@H](C1)N2c1ccc(C(=O)NCC(F)(F)F)cn1 [Example 107, 6-[3-endo-({2-[(3,5-dichloropyridin-2-yl)oxy]-2-methylpropanoyl}amino)-8-azabicyclo[3.2.1]oct-8-yl]-N-(2,2,2-trifluoroethyl)pyridine-3-carboxamide] | < 200
14 | CC(C)(Oc1ccc(Cl)cc1Cl)C(=O)N[C@H]1C[C@H]2CC[C@@H](C1)N2c1ccc(C(=O)NCc2ccncc2)cn1 [Example 342, 6-(3-endo-{[2-(2,4-dichlorophenoxy)-2-methylpropanoyl]amino}-8-azabicyclo[3.2.1]oct-8-yl)-N-(pyridin-4-ylmethyl)pyridine-3-carboxamide] | < 200
15 | CC(Oc1ccc(Cl)cc1Cl)C(=O)N[C@H]1C[C@H]2CC[C@@H](C1)N2c1ccc(C(=O)NC2CC2)cn1 (stereo partly drawn) [Example 82, N-cyclopropyl-6-[3-endo-({2-[(2,4-dichlorophenyl)oxy]propanoyl}amino)-8-azabicyclo[3.2.1]oct-8-yl]pyridine-3-carboxamide] | < 200
16 | O=C(NC1CC1)c1ccc(N2[C@@H]3CC[C@H]2C[C@@H](NC(=O)C2(Oc4ccccc4)CCC2)C3)nc1 [Example 46, N-cyclopropyl-6-[3-endo-({[1-(phenyloxy)cyclobutyl]carbonyl}amino)-8-azabicyclo[3.2.1]oct-8-yl]pyridine-3-carboxamide] | < 200
17 | CC(C)(Oc1ccc(Cl)cc1C(F)(F)F)C(=O)N[C@H]1C[C@H]2CC[C@@H](C1)N2c1ccc(S(C)(=O)=O)cc1 [Example 284, 2-{[4-chloro-2-(trifluoromethyl)phenyl]oxy}-2-methyl-N-{8-[4-(methylsulfonyl)phenyl]-8-azabicyclo[3.2.1]oct-3-endo-yl}propanamide] | < 200
18 | CS(=O)(=O)c1ccc(N2[C@@H]3CC[C@H]2C[C@@H](NC(=O)C2(c4ccc(F)c(Cl)c4)CC2)C3)nc1 [Example 332, 1-(3-chloro-4-fluorophenyl)-N-{8-[5-(methylsulfonyl)pyridin-2-yl]-8-azabicyclo[3.2.1]oct-3-endo-yl}cyclopropanecarboxamide] | < 200
19 | COCCNC(=O)c1ccc(N2[C@@H]3CC[C@H]2C[C@@H](NC(=O)C(C)Oc2ccc(Cl)cc2)C3)nc1 (stereo partly drawn) [Example 67, 6-[3-endo-({2-[(4-chlorophenyl)oxy]propanoyl}amino)-8-azabicyclo[3.2.1]oct-8-yl]-N-[2-(methyloxy)ethyl]pyridine-3-carboxamide] | < 10000
20 | C[C@@H](NC(=O)c1ccc(N2C3CCC2CC(NC(=O)C(C)(C)Oc2ccc(Cl)cc2C(F)F)C3)nc1)C(F)(F)F (stereo partly drawn) [Example 411, 6-(3-endo-(2-(4-chloro-2-(difluoromethyl)phenoxy)-2-methylpropanamido)-8-azabicyclo[3.2.1]octan-8-yl)-N-((R)-1,1,1-trifluoropropan-2-yl)nicotinamide] | < 200
21 | CC(C)(C(=O)N[C@H]1C[C@H]2CC[C@@H](C1)N2c1ccc(C(=O)NC2CC2)cn1)c1ccc(Cl)cc1 [Example 20, 6-(3-endo-{[2-(4-chlorophenyl)-2-methylpropanoyl]amino}-8-azabicyclo[3.2.1]oct-8-yl)-N-cyclopropyipyridine-3-carboxamide] | < 200
22 | O=C(NC1CC1)c1ccc(N2[C@@H]3CC[C@H]2C[C@@H](NC(=O)C2(c4ccc(Cl)cc4)CC2)C3)c(F)c1 [Example 148, 4-[3-endo-({[1-(4-chlorophenyl)cyclopropyl]carbonyl}amino)-8-azabicyclo[3.2.1]oct-8-yl]-N-cyclopropyl-3-fluorobenzamide] | < 200
23 | CC(C)(Oc1ccc(F)c(Cl)c1Cl)C(=O)N[C@H]1C[C@H]2CC[C@@H](C1)N2c1ccc(S(C)(=O)=O)cc1 [Example 235, 2-[(2,3-dichloro-4-fluorophenyl)oxy]-2-methyl-N-{8-[4-(methylsulfonyl)phenyl]-8-azabicyclo[3.2.1]oct-3-endo-yl}propanamide] | < 200
24 | CC(C)(Sc1ccc(Cl)cc1Cl)C(=O)N[C@H]1C[C@H]2CC[C@@H](C1)N2c1ccc(C(N)=O)cn1 [Example 286, 6-[3-endo-({2-[(2,4-dichlorophenyl)thio]-2-methylpropanoyl}amino)-8-azabicyclo[3.2.1]oct-8-yl]pyridine-3-carboxamide] | < 200
